Data on two molecules can be found in patent US20060217359A1, “Therapeutic procedures” (priority 2003, published 2006).

Data set [1] can be described thus: Cytotoxicity assay (LDH release), Jurkat. It is filed as cell-based. The conditions noted are these: human. As to the method: (§1) Cytotoxicity assays. WI-L2 human B-lymphocyte line, HAAE-1 human abdominal aortic endothelial line, MH—S murine alveolar macrophage line, and J774A.1 murine tissue macrophage line were obtained from the ATCC. Human aortic endothelial cells (HAEC) and human vascular smooth muscle cells (VSMS) were obtained from Cambrex Bio Science. Jurkat E6-1T-lymphocytes were kindly provided by Dr. J. Kaye (The Scripps Research Institute). Cells were cultured in ATCC-recommended media with 10% fetal calf serum. Cells were incubated in a controlled atmosphere at 37° C., with 5 or 7% CO2. For lactate dehydrogenase (LDH) release assays, adherent cells were harvested either by addition of 0.05% trypsin/EDTA or by scraping. The cells obtained were seeded onto 96-well microtiter plates (25,000 cells/well) and allowed to recover for 24-48 h. […] Cytotoxicity was then determined by measuring lactate dehydrogenase (LDH) release from cells in culture. […] 100% Cytotoxicity was defined as the maximum amount of LDH released by dead cells as shown by trypan blue exclusion, or the highest amount of LDH detected upon lysis of cells by 0.9% Triton X-100. The IC50 values were determined by comparison of the raw duplicate data for concentration versus cytotoxicity (%) to non-linear regression analysis (Hill plot) using Graphpad v3.0 software for Macintosh. […]
In general terms: LDH in the medium is a marker of cell lysis.

The nature of data set [2]: Cytotoxicity assay (LDH release), WI-L2. Format: cell-based. The settings on record: human. As to the method:
as §1

For the next data set, the target named is LDL / apoB-100 (Homo sapiens, UniProt P04114). The experiment in a line: Circular dichroism of LDL secondary structure. The conditions noted are these: LDL 100 μg/ml, compound 10 μM, PBS pH 7.4, 37° C., up to 48 h; for random coil of LDL after incubation: native LDL 27±2%; for α helical structure of LDL after incubation (loss of secondary structure): native LDL ~40±2%. Format: biochemical.

Data set [3] is described as follows: Cytotoxicity assay (LDH release), HAEC. It is filed as cell-based. The settings on record: human, 0-100 μM. As to the method:
as §1

A short description of data set [4]: Cytotoxicity assay (LDH release), VSMC. It is filed as cell-based. The settings on record: human, 0-100 μM. As to the method: as §1
Data set [5] is described as follows: Decrease of extractable 5a in stored plasma. Format: in vitro ADME. The settings on record: stored human plasma, preliminary investigations. The text has this:
The combined organic fractions were evaporated in vacuo.

A short description of data set [6]: Cytotoxicity assay (LDH release), MH-S. It is filed as cell-based, murine. The settings on record: mouse, MH-S cells, 0-100 μM. As for the experimental part: as §1
Data set [7] in a line: Cytotoxicity assay (LDH release), J774A.1. Format: cell-based, murine. The conditions noted are these: mouse, J774A.1 cells, 0-100 μM. As to the method:
as §1

Chain of LDL / apoB-100 (P04114 28-4563): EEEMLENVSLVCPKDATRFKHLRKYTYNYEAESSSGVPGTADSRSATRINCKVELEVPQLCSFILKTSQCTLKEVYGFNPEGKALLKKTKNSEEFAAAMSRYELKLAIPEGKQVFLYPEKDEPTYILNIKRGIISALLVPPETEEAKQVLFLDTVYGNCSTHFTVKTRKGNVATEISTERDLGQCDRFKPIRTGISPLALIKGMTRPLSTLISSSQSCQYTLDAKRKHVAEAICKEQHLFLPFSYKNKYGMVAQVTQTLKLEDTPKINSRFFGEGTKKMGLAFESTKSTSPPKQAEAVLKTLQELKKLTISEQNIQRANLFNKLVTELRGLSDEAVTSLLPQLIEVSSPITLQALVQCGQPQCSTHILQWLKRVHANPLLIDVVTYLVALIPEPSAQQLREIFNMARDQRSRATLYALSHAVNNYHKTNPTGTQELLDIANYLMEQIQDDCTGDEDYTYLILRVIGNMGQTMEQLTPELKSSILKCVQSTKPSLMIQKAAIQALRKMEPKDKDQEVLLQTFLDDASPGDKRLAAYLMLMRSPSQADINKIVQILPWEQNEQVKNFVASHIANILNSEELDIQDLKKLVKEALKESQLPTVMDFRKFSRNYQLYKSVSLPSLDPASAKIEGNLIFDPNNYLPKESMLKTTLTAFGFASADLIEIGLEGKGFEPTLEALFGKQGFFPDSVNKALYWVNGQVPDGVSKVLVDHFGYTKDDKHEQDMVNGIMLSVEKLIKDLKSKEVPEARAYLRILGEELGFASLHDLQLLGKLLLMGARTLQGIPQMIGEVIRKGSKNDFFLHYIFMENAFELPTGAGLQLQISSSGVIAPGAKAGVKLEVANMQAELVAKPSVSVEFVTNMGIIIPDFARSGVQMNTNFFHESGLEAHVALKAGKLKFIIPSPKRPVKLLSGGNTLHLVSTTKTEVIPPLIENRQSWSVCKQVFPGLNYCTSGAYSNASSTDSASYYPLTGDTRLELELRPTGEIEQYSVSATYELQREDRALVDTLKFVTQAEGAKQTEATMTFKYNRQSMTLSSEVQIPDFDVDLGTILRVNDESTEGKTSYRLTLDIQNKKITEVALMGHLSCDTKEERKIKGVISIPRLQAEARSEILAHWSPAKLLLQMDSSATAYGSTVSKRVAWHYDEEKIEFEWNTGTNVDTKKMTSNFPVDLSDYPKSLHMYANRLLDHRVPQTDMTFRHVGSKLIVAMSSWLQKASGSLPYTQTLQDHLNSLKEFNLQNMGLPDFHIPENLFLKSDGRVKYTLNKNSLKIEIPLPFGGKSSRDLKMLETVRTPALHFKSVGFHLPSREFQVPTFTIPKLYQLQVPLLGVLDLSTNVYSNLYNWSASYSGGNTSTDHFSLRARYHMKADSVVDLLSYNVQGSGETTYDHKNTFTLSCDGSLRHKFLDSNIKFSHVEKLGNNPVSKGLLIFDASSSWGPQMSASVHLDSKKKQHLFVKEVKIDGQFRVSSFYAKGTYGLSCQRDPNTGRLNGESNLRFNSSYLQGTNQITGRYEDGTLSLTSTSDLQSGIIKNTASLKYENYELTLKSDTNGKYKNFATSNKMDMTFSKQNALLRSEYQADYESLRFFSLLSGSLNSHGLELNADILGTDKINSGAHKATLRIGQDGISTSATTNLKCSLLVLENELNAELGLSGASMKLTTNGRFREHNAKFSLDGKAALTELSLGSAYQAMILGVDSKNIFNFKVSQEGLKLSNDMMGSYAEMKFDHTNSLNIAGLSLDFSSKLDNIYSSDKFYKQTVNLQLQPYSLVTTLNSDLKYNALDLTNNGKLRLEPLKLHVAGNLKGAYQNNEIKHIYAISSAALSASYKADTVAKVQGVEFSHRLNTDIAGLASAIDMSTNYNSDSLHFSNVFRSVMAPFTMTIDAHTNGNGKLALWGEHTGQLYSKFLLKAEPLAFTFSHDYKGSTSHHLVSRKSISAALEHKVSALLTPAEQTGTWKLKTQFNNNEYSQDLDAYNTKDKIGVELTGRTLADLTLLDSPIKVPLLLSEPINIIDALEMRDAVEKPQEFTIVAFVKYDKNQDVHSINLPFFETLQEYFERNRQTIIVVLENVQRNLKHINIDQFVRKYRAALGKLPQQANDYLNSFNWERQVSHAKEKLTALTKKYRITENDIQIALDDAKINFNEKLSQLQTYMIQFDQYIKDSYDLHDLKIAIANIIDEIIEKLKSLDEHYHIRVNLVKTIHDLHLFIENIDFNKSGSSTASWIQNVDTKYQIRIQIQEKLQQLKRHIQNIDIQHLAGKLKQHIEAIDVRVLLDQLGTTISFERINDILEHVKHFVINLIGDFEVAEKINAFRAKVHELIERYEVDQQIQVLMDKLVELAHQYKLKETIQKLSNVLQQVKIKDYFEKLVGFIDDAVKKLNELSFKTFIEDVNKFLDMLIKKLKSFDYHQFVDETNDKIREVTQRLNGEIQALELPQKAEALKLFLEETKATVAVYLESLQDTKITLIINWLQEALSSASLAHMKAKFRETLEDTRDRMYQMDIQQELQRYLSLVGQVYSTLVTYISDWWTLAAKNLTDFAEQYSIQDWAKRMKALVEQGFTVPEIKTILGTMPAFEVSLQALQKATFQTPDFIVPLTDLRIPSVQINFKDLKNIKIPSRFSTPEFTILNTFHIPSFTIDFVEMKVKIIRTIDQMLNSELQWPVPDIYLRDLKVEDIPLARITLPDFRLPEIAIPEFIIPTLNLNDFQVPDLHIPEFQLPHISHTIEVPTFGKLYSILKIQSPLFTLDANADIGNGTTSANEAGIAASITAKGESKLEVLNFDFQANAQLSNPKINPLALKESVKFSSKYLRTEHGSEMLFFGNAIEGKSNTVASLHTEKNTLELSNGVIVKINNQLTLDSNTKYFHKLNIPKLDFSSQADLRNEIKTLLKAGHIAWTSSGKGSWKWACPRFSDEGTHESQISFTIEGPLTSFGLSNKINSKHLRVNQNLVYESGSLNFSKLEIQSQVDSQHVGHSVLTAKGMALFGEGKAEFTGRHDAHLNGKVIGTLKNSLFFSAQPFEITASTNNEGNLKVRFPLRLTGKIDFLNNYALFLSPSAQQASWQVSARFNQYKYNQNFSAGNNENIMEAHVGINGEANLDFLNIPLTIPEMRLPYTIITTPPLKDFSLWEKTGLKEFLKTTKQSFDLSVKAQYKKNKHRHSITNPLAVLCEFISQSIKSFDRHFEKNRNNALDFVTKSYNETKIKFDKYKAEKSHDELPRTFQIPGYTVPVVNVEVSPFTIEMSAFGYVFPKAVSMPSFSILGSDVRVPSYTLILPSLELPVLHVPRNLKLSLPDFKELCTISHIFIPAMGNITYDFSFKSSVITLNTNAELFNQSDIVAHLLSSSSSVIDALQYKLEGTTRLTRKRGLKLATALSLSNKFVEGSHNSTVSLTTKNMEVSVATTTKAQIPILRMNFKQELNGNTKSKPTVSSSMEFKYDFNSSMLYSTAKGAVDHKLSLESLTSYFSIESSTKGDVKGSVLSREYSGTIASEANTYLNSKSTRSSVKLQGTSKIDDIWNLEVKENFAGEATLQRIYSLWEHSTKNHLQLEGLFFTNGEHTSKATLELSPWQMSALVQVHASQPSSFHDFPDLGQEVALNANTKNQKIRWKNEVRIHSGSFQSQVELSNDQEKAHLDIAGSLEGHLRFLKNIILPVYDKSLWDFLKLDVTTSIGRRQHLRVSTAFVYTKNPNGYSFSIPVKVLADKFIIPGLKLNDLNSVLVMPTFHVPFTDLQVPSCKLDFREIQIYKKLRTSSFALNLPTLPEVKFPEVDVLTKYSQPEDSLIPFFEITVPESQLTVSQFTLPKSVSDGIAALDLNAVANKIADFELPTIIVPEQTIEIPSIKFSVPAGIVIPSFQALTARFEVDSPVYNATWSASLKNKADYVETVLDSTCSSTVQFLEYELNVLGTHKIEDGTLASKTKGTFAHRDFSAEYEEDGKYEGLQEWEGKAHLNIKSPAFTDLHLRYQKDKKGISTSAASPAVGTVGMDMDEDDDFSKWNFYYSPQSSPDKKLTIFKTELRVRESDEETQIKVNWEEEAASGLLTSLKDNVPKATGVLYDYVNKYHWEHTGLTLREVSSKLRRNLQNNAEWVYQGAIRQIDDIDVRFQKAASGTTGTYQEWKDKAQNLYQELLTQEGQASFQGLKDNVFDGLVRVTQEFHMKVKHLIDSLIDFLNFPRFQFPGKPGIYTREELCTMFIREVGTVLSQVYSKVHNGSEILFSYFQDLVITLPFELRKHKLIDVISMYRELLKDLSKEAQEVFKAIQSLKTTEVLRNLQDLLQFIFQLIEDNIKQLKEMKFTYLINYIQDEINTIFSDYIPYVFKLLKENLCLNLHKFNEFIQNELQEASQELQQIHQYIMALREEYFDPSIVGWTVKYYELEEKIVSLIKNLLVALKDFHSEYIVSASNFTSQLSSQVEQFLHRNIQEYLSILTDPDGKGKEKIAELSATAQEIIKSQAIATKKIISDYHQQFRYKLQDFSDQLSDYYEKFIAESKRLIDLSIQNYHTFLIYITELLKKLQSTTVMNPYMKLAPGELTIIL
Method for LDL / apoB-100: Circular dichroism. […] Spectra were recorded in the peptidic range (200-260 nm). To increase the signal-to-noise ratio, multiple spectra (three) were averaged for each measurement.

On to `CC(C)CCC[C@@H](C)[C@H]1CCC2C(CC=O)C([C@@]3(C)CC[C@H](O)CC3=O)CC[C@@]21C` (stereo partly drawn) [4a, 3β-Hydroxy-5-oxo-5,6-secocholestan-6-al], for which the IC50 (in general, the concentration that gives 50% inhibition) at 18 h was determined as 15.5 ± 1.7 µM in data set [1], 10.9 ± 1.6 µM in data set [2], 24.6 ± 3.2 µM in data set [3] (human aortic endothelial cells (HAEC)) and 21.9 ± 2.2 µM in data set [4] (vascular smooth muscle cells (VSMC)). In addition, the “random coil of LDL after incubation” value at LDL / apoB-100 was approximately 39±2%. Moreover, on LDL / apoB-100, the “α helical structure of LDL after incubation (loss of secondary structure)” value is recorded as approximately 23±5%.
With `CC(C)CCC[C@@H](C)[C@H]1CCC2C3C(CC[C@@]21C)[C@@]1(C)CC[C@H](O)C[C@@]1(O)[C@@H]3C=O` (stereo partly drawn) [5a, 3β-Hydroxy-5β-hydroxy-B-norcholestane-6β-carboxaldehyde], in data set [5], the “decrease of the amount that can be extracted from plasma” value is “about 5 % per day”. Also, the concentration for half-maximal inhibition (IC50) at 18 h worked out at 13.6 ± 1.1 µM in data set [6]; 12.6 ± 1.9 µM in data set [1] (Jurkat E6.1 cells, 18 h, 0-100 μM, read-out: IC50 (cytotoxicity, LDH release)); 17.7 ± 2.3 µM in data set [2] (WIL2 cells, 18 h, 0-100 μM, read-out: IC50 (cytotoxicity, LDH release)); 18.2 ± 1.9 µM in data set [3] (HAEC cells); 26.1 ± 2.8 µM in data set [7]; 29.8 ± 2.8 µM in data set [4] (VSMC cells). The “random coil of LDL after incubation” value on LDL / apoB-100 came out at 32±4%. At LDL / apoB-100, the “α helical structure of LDL after incubation (loss of secondary structure)” value is approximately 20±2%.
